Reference: the NIST ThermoML archive (doi:10.1016/j.jct.2016.10.023)

Experiment: xn = mol fraction of the nth substance listed
Details: Constant-volume piezometry

CCCCC [pentane] + CCCO
Details	mass density [kg/m3]
503.15 K, 5980 kPa, Fluid (supercritical or subcritical phases), x1 = 0.8	288.67
503.15 K, 6051 kPa, Fluid (supercritical or subcritical phases), x1 = 0.9	301.99
503.15 K, 6149 kPa, Fluid (supercritical or subcritical phases), x1 = 0.8	299.5
503.15 K, 6295 kPa, Fluid (supercritical or subcritical phases), x1 = 0.9	312.64
503.15 K, 6413 kPa, Liquid, x1 = 0.2	470.91
503.15 K, 6490 kPa, Fluid (supercritical or subcritical phases), x1 = 0.5	373.27
503.15 K, 6551 kPa, Fluid (supercritical or subcritical phases), x1 = 0.8	315.69
503.15 K, 6924 kPa, Fluid (supercritical or subcritical phases), x1 = 0.9	334.38
503.15 K, 7052 kPa, Fluid (supercritical or subcritical phases), x1 = 0.8	334.2
503.15 K, 7423 kPa, Fluid (supercritical or subcritical phases), x1 = 0.8	345.74
503.15 K, 7481 kPa, Fluid (supercritical or subcritical phases), x1 = 0.5	398.56
503.15 K, 7825 kPa, Fluid (supercritical or subcritical phases), x1 = 0.9	354.5
503.15 K, 8266 kPa, Fluid (supercritical or subcritical phases), x1 = 0.8	362.32
503.15 K, 8559 kPa, Fluid (supercritical or subcritical phases), x1 = 0.5	417.68
503.15 K, 10489 kPa, Fluid (supercritical or subcritical phases), x1 = 0.5	441.45
503.15 K, 10609 kPa, Liquid, x1 = 0.2	510.19
503.15 K, 11537 kPa, Fluid (supercritical or subcritical phases), x1 = 0.5	451.78
503.15 K, 12022 kPa, Fluid (supercritical or subcritical phases), x1 = 0.9	407.75
503.15 K, 12689 kPa, Fluid (supercritical or subcritical phases), x1 = 0.8	418.68
503.15 K, 14223 kPa, Fluid (supercritical or subcritical phases), x1 = 0.5	468.71
503.15 K, 18302 kPa, Liquid, x1 = 0.2	547.72
503.15 K, 21559 kPa, Fluid (supercritical or subcritical phases), x1 = 0.8	467.26
503.15 K, 26707 kPa, Fluid (supercritical or subcritical phases), x1 = 0.5	519.99
503.15 K, 30356 kPa, Fluid (supercritical or subcritical phases), x1 = 0.8	496.72
503.15 K, 30587 kPa, Liquid, x1 = 0.2	582.08
503.15 K, 37782 kPa, Liquid, x1 = 0.2	595.68
503.15 K, 41722 kPa, Fluid (supercritical or subcritical phases), x1 = 0.8	521.26
504.15 K, 4315 kPa, Liquid, x1 = 0.2	419.14
508.15 K, 4020 kPa, Gas, x1 = 0.2	114.44
508.15 K, 4961 kPa, Liquid, x1 = 0.2	419.05
510.15 K, 4548 kPa, Liquid, x1 = 0.2	383.7
511.15 K, 4773 kPa, Liquid, x1 = 0.2	391.53
513.15 K, 933 kPa, Gas, x1 = 0.5	15.53
513.15 K, 1283 kPa, Gas, x1 = 0.8	22.54
513.15 K, 1508 kPa, Gas, x1 = 0.2	24.94
513.15 K, 1686 kPa, Gas, x1 = 0.5	30
513.15 K, 1923 kPa, Gas, x1 = 0.8	36.71
513.15 K, 2226 kPa, Gas, x1 = 0.5	40.51
513.15 K, 2615 kPa, Gas, x1 = 0.5	51.12
513.15 K, 2796 kPa, Gas, x1 = 0.8	58.44
513.15 K, 2974 kPa, Gas, x1 = 0.2	53.03
513.15 K, 3284 kPa, Gas, x1 = 0.5	67.55
513.15 K, 3295 kPa, Gas, x1 = 0.8	73.83
513.15 K, 3462 kPa, Gas, x1 = 0.5	72.63
513.15 K, 3488 kPa, Gas, x1 = 0.9	83.42
513.15 K, 3816 kPa, Gas, x1 = 0.2	91.46
513.15 K, 3844 kPa, Gas, x1 = 0.5	88.95
513.15 K, 4033 kPa, Gas, x1 = 0.5	95.89
513.15 K, 4156 kPa, Fluid (supercritical or subcritical phases), x1 = 0.8	106.45
513.15 K, 4165 kPa, Gas, x1 = 0.2	114.41
513.15 K, 4349 kPa, Fluid (supercritical or subcritical phases), x1 = 0.9	123.41
513.15 K, 4538 kPa, Fluid (supercritical or subcritical phases), x1 = 0.9	134.18
513.15 K, 4567 kPa, Fluid (supercritical or subcritical phases), x1 = 0.5	121.95
513.15 K, 4703 kPa, Liquid, x1 = 0.2	350.76
513.15 K, 4837 kPa, Fluid (supercritical or subcritical phases), x1 = 0.5	144.18
513.15 K, 4850 kPa, Fluid (supercritical or subcritical phases), x1 = 0.8	140.37
513.15 K, 4865 kPa, Liquid, x1 = 0.2	378.83
513.15 K, 4965 kPa, Fluid (supercritical or subcritical phases), x1 = 0.9	164.03
513.15 K, 4968 kPa, Fluid (supercritical or subcritical phases), x1 = 0.5	154.56
513.15 K, 4968 kPa, Liquid, x1 = 0.2	383.64
513.15 K, 5032 kPa, Fluid (supercritical or subcritical phases), x1 = 0.8	156.12
513.15 K, 5068 kPa, Fluid (supercritical or subcritical phases), x1 = 0.2	391.49
513.15 K, 5068 kPa, Liquid, x1 = 0.2	391.49
513.15 K, 5086 kPa, Fluid (supercritical or subcritical phases), x1 = 0.5	165.22
513.15 K, 5197 kPa, Fluid (supercritical or subcritical phases), x1 = 0.8	169.87
513.15 K, 5255 kPa, Fluid (supercritical or subcritical phases), x1 = 0.5	182.94
513.15 K, 5265 kPa, Fluid (supercritical or subcritical phases), x1 = 0.8	176.11
513.15 K, 5295 kPa, Fluid (supercritical or subcritical phases), x1 = 0.9	189.54
513.15 K, 5344 kPa, Fluid (supercritical or subcritical phases), x1 = 0.8	180.91
513.15 K, 5373 kPa, Fluid (supercritical or subcritical phases), x1 = 0.5	200.49
513.15 K, 5432 kPa, Fluid (supercritical or subcritical phases), x1 = 0.5	210.33
513.15 K, 5454 kPa, Fluid (supercritical or subcritical phases), x1 = 0.9	202.47
513.15 K, 5473 kPa, Fluid (supercritical or subcritical phases), x1 = 0.8	193.25
513.15 K, 5506 kPa, Fluid (supercritical or subcritical phases), x1 = 0.5	224.16
513.15 K, 5598 kPa, Fluid (supercritical or subcritical phases), x1 = 0.5	241.62
513.15 K, 5618 kPa, Fluid (supercritical or subcritical phases), x1 = 0.5	250.82
513.15 K, 5669 kPa, Fluid (supercritical or subcritical phases), x1 = 0.9	220.79
513.15 K, 5677 kPa, Fluid (supercritical or subcritical phases), x1 = 0.5	259.87
513.15 K, 5710 kPa, Fluid (supercritical or subcritical phases), x1 = 0.8	213.96
513.15 K, 5746 kPa, Fluid (supercritical or subcritical phases), x1 = 0.5	270.69
513.15 K, 5776 kPa, Fluid (supercritical or subcritical phases), x1 = 0.8	219.73
513.15 K, 5792 kPa, Liquid, x1 = 0.2	418.94
513.15 K, 5837 kPa, Fluid (supercritical or subcritical phases), x1 = 0.9	233.18
513.15 K, 5858 kPa, Fluid (supercritical or subcritical phases), x1 = 0.5	282.52
513.15 K, 5880 kPa, Fluid (supercritical or subcritical phases), x1 = 0.9	236.64
513.15 K, 5929 kPa, Fluid (supercritical or subcritical phases), x1 = 0.9	241.05
513.15 K, 5974 kPa, Fluid (supercritical or subcritical phases), x1 = 0.9	244.36
513.15 K, 5983 kPa, Fluid (supercritical or subcritical phases), x1 = 0.8	234.82
513.15 K, 6090 kPa, Fluid (supercritical or subcritical phases), x1 = 0.5	298.82
513.15 K, 6119 kPa, Fluid (supercritical or subcritical phases), x1 = 0.8	245.46
513.15 K, 6286 kPa, Fluid (supercritical or subcritical phases), x1 = 0.8	258.7
513.15 K, 6470 kPa, Fluid (supercritical or subcritical phases), x1 = 0.5	320.16
513.15 K, 6531 kPa, Fluid (supercritical or subcritical phases), x1 = 0.8	272.67
513.15 K, 6531 kPa, Fluid (supercritical or subcritical phases), x1 = 0.9	282.15
513.15 K, 6559 kPa, Fluid (supercritical or subcritical phases), x1 = 0.5	325.44
513.15 K, 6787 kPa, Fluid (supercritical or subcritical phases), x1 = 0.8	288.53
513.15 K, 6884 kPa, Fluid (supercritical or subcritical phases), x1 = 0.9	301.84
513.15 K, 6962 kPa, Fluid (supercritical or subcritical phases), x1 = 0.5	344.73
513.15 K, 7033 kPa, Fluid (supercritical or subcritical phases), x1 = 0.8	299.35
513.15 K, 7191 kPa, Fluid (supercritical or subcritical phases), x1 = 0.9	312.49
513.15 K, 7508 kPa, Fluid (supercritical or subcritical phases), x1 = 0.8	315.53
513.15 K, 7785 kPa, Fluid (supercritical or subcritical phases), x1 = 0.5	373.08
513.15 K, 7943 kPa, Fluid (supercritical or subcritical phases), x1 = 0.9	334.21
513.15 K, 8099 kPa, Fluid (supercritical or subcritical phases), x1 = 0.8	334.03
513.15 K, 8570 kPa, Fluid (supercritical or subcritical phases), x1 = 0.8	345.56
513.15 K, 8766 kPa, Liquid, x1 = 0.2	470.65
513.15 K, 8986 kPa, Fluid (supercritical or subcritical phases), x1 = 0.5	398.35
513.15 K, 9031 kPa, Fluid (supercritical or subcritical phases), x1 = 0.9	354.32
513.15 K, 9551 kPa, Fluid (supercritical or subcritical phases), x1 = 0.8	362.13
513.15 K, 10333 kPa, Fluid (supercritical or subcritical phases), x1 = 0.5	417.46
513.15 K, 12509 kPa, Fluid (supercritical or subcritical phases), x1 = 0.5	441.21
513.15 K, 13550 kPa, Fluid (supercritical or subcritical phases), x1 = 0.2	509.9
513.15 K, 13550 kPa, Liquid, x1 = 0.2	509.9
513.15 K, 13634 kPa, Fluid (supercritical or subcritical phases), x1 = 0.5	451.54
513.15 K, 13786 kPa, Fluid (supercritical or subcritical phases), x1 = 0.9	407.53
513.15 K, 14551 kPa, Fluid (supercritical or subcritical phases), x1 = 0.8	418.46
513.15 K, 16655 kPa, Fluid (supercritical or subcritical phases), x1 = 0.5	468.45
513.15 K, 22117 kPa, Liquid, x1 = 0.2	547.38
513.15 K, 24001 kPa, Fluid (supercritical or subcritical phases), x1 = 0.8	467
513.15 K, 30101 kPa, Fluid (supercritical or subcritical phases), x1 = 0.5	519.68
513.15 K, 33469 kPa, Fluid (supercritical or subcritical phases), x1 = 0.8	496.43
513.15 K, 35193 kPa, Liquid, x1 = 0.2	581.71
513.15 K, 42801 kPa, Liquid, x1 = 0.2	595.3
514.15 K, 4473 kPa, Gas, x1 = 0.2	150.41
514.15 K, 4778 kPa, Liquid, x1 = 0.2	341.42
514.15 K, 4795 kPa, Liquid, x1 = 0.2	350.74
515.15 K, 4522 kPa, Gas, x1 = 0.2	150.4
515.15 K, 4645 kPa, Fluid (supercritical or subcritical phases), x1 = 0.2	175.68
515.15 K, 4818 kPa, Fluid (supercritical or subcritical phases), x1 = 0.2	318.9
516.15 K, 4838 kPa, Fluid (supercritical or subcritical phases), x1 = 0.2	272.45
516.15 K, 4852 kPa, Fluid (supercritical or subcritical phases), x1 = 0.2	290.64
516.15 K, 4872 kPa, Fluid (supercritical or subcritical phases), x1 = 0.2	306.93
516.15 K, 4877 kPa, Fluid (supercritical or subcritical phases), x1 = 0.2	311.17
516.15 K, 4909 kPa, Fluid (supercritical or subcritical phases), x1 = 0.2	318.89
517.15 K, 4912 kPa, Fluid (supercritical or subcritical phases), x1 = 0.2	272.44
517.15 K, 4958 kPa, Fluid (supercritical or subcritical phases), x1 = 0.2	306.92

Liquid, x1 = 0.2
Details	mass density [kg/m3]
508.65 K	391.58
509.65 K	383.71
510.35 K	378.89
512.85 K	350.77
513.45 K	344.22
513.65 K	341.43
514.95 K	318.91
515.15 K	311.18
515.55 K	306.94
515.95 K	290.64
516.15 K	272.45
